# Results as given in PubChem BioAssay (NCI).
#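 Dose response: 5 concentrations. Exposure: 48 h. Format: 96-well plates. Endpoint: linear interpolation; highest concentration if not reached. GI50 = concentration required for 50% inhibition of growth. TGI denotes the concentration required for complete inhibition of growth.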
# Legend:
# Assay in all cases: NCI anticancer screen, dose series, 48 h
# COLO 205 colon = tested on: COLO 205 colon
# OVCAR-4 ovarian = tested on: OVCAR-4 ovarian
# SF-539 CNS = tested on: SF-539 CNS
# SK-MEL-28 melanoma = tested on: SK-MEL-28 melanoma
# SN12C renal = tested on: SN12C renal
# SNB-19 CNS = tested on: SNB-19 CNS
# SW-620 colon = tested on: SW-620 colon
# UACC-62 melanoma = tested on: UACC-62 melanoma
# UO-31 renal = tested on: UO-31 renal
# NCI-H460 lung = tested on: NCI-H460 lung
Compound,GI50 (COLO 205 colon) [µM],TGI (COLO 205 colon) [µM],GI50 (OVCAR-4 ovarian) [µM],TGI (OVCAR-4 ovarian) [µM],GI50 (SF-539 CNS) [µM],TGI (SF-539 CNS) [µM],GI50 (SK-MEL-28 melanoma) [µM],TGI (SK-MEL-28 melanoma) [µM],GI50 (SN12C renal) [µM],TGI (SN12C renal) [µM],GI50 (SNB-19 CNS) [µM],TGI (SNB-19 CNS) [µM],GI50 (SW-620 colon) [µM],TGI (SW-620 colon) [µM],GI50 (UACC-62 melanoma) [µM],TGI (UACC-62 melanoma) [µM],GI50 (UO-31 renal) [µM],TGI (UO-31 renal) [µM],TGI (NCI-H460 lung) [µM],GI50 (NCI-H460 lung) [µM]
O=C(c1ccccc1)c1nn(-c2ccccc2)c2nc3nc(-c4ccccc4)cc(=O)n3nc12,26.8,64.1,22.9,68.4,19.2,38.6,37.8,> 100,22.7,53.2,42.7,> 100,33.1,> 100,29.4,89.2,25.7,> 100,,
CCCCS(=O)CC(CO)NC(=O)/C=C/c1c(C)[nH]c(=O)[nH]c1=O (stereo not drawn),,53.4,,26.4,,35.4,,44.5,,49,,24.8,,152,,32,,73.3,17.2,
C[C@]12CCc3sc(-c4cccc(F)c4)nc3C1=CC[C@@H]1[C@@H]2CC[C@]2(C)C(=O)CC[C@@H]12,2.42,5.46,5.51,> 100,1.04,2.48,1.53,4.07,3.01,> 100,4.79,> 100,,,1.9,5.7,1.61,2.98,8.27,2.78
O=C1CCCN1CCCN=c1cc2n(-c3ccc(Cl)cc3)c3ccccc3nc-2cc1Nc1ccc(Cl)cc1,,2.83,,21.8,,28.2,,47.5,,43.4,,98.8,,68.5,,26.2,,51.3,22.1,
Cc1c(N=NN(C)C)cc[n+]([O-])c1C,,> 100,,> 100,,> 100,,> 100,,> 100,,> 100,,> 100,,> 100,,> 100,> 100,
Cc1cc2c(C(C)C)c(O)c(O)c(C=Nc3ccccc3)c2c(O)c1-c1c(C)cc2c(C(C)C)c(O)c(O)c(C=Nc3ccccc3)c2c1O,,> 100,,> 100,,> 100,,> 100,,> 100,,> 100,,> 100,,> 100,,> 100,> 100,
CC(C)[C@](O)(C(=O)OCC1=CCN2CC[C@@H](O)[C@@H]12)[C@H](C)O,,> 375,,> 375,,> 375,,> 375,,> 375,,> 375,,> 237,,> 375,,> 375,> 375,
CCc1c(C)c2ccc(OCC(=O)N=Nc3c(O)[nH]c4ccccc34)c(C)c2oc1=O,,,0.788,1.86,> 33.3,> 33.3,,,,,,,,,,> 33.3,> 33.3,> 33.3,,
